Results from ChEMBL document CHEMBL1154822, “Synthesis and antiproliferative activity of 7-azaindirubin-3'-oxime, a 7-aza isostere of the natural indirubin pharmacophore” (J Nat Prod, 2009).

Key:
[1] = target: T1, Cyclin-dependent kinase 2/cyclin A (Homo sapiens) (UniProt P24941+P20248+P78396); assay: Inhibition of human CDK2/Cyclin A assessed as residual enzyme activity at 3 uM after 40 mins by scintillation counting; type: protein-complex assay
DU-145 = assay: Cytotoxicity against human DU145 cells assessed as cell growth at 10 uM after 48 hrs by MTT assay; type: functional; settings: DU-145, 48 h, read-out: Activity
SK-MEL-2 = assay: Cytotoxicity against human SK-MEL-2 cells assessed as cell growth at 10 uM after 48 hrs by MTT assay; type: functional; settings: SK-MEL-2, 48 h, read-out: Activity
NCI-H322M = assay: Cytotoxicity against human NCI-H322M cells assessed as cell growth at 10 uM after 48 hrs by MTT assay; type: functional; settings: read-out: Activity
T47D = assay: Cytotoxicity against human T47D cells assessed as cell growth at 10 uM after 48 hrs by MTT assay; type: functional; settings: read-out: Activity
MCF7 = assay: Cytotoxicity against human MCF7 cells assessed as cell growth at 10 uM after 48 hrs by MTT assay; type: functional; settings: MCF7, 48 h, read-out: Activity
786-0 = assay: Cytotoxicity against human 786-0 cells assessed as cell growth at 10 uM after 48 hrs by MTT assay; type: functional; settings: 786-0, 48 h, read-out: Activity
OVCAR-4 = assay: Cytotoxicity against human OVCAR4 cells assessed as cell growth at 10 uM after 48 hrs by MTT assay; type: functional; settings: OVCAR-4, 48 h, read-out: Activity
[2] = target: Glycogen synthase kinase-3 beta (Homo sapiens) (UniProt P49841); assay: Inhibition of human GSK3-beta assessed as residual enzyme activity at 0.01 uM after 40 mins by scintillation counting
Sequence of Glycogen synthase kinase-3 beta (Homo sapiens) (P49841 whole entry, looked up): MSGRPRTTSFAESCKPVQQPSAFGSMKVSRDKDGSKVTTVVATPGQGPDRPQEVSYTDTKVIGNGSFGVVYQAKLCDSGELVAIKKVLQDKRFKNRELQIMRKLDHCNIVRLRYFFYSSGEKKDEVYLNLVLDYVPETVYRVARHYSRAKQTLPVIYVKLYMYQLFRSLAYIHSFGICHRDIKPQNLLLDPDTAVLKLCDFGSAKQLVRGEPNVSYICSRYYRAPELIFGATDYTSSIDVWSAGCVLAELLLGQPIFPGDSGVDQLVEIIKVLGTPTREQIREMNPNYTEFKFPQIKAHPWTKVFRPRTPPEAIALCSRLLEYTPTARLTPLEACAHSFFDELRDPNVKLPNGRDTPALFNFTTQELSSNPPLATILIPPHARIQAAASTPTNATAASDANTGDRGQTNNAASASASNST

[3] = target: T1, Cyclin-dependent kinase 2/cyclin A (Homo sapiens); assay: Inhibition of human CDK2/Cyclin A assessed as residual enzyme activity at 0.3 uM after 40 mins by scintillation counting; type: protein-complex assay
EKVX = assay: Cytotoxicity against human EKVX cells assessed as cell growth at 10 uM after 48 hrs by MTT assay; type: functional; settings: read-out: Activity
[4] = target: T2, Cyclin-dependent kinase 5/CDK5 activator 1 (Homo sapiens) (UniProt Q00535+Q15078); assay: Inhibition of human CDK5/p35 assessed as residual enzyme activity at 0.3 uM after 40 mins by scintillation counting; type: protein-complex assay
CCRF-CEM [5] = assay: Cytotoxicity against human CCRF-CEM cells assessed as cell growth at 10 uM after 48 hrs by MTT assay; type: functional; settings: read-out: Activity
SF-268 = assay: Cytotoxicity against human SF268 cells assessed as cell growth at 10 uM after 48 hrs by MTT assay; type: functional; settings: SF-268, 48 h, read-out: Activity
BT-549 [6] = assay: Cytotoxicity against human BT549 cells assessed as cell growth at 10 uM after 48 hrs by MTT assay; type: functional; settings: BT-549, 48 h, read-out: Activity
PC-3 = assay: Cytotoxicity against human PC3 cells assessed as cell growth at 10 uM after 48 hrs by MTT assay; type: functional; settings: PC-3, 48 h, read-out: Activity
SW-620 = assay: Cytotoxicity against human SW620 cells assessed as cell growth at 10 uM after 48 hrs by MTT assay; type: functional; settings: SW-620, 48 h, read-out: Activity
[7] = target: T2, Cyclin-dependent kinase 5/CDK5 activator 1 (Homo sapiens); assay: Inhibition of human CDK5/p35 assessed as residual enzyme activity at 3 uM after 40 mins by scintillation counting; type: protein-complex assay
M14 = assay: Cytotoxicity against human M14 cells assessed as cell growth at 10 uM after 48 hrs by MTT assay; type: functional; settings: M14, 48 h, read-out: Activity
SN12C = assay: Cytotoxicity against human SN12C cells assessed as cell growth at 10 uM after 48 hrs by MTT assay; type: functional; settings: read-out: Activity
Malme-3M = assay: Cytotoxicity against human MALME-3M cells assessed as cell growth at 10 uM after 48 hrs by MTT assay; type: functional; settings: read-out: Activity
CAKI-1 = assay: Cytotoxicity against human Caki1 cells assessed as cell growth at 10 uM after 48 hrs by MTT assay; type: functional; settings: CAKI-1, 48 h, read-out: Activity
SK-MEL-5 [8] = assay: Cytotoxicity against human SK-MEL-5 cells assessed as cell growth at 10 uM after 48 hrs by MTT assay; type: functional; settings: SK-MEL-5, 48 h, read-out: Activity
SR [9] = assay: Cytotoxicity against human SR cells assessed as cell growth at 10 uM after 48 hrs by MTT assay; type: functional; settings: read-out: Activity
SNB-75 = assay: Cytotoxicity against human SNB75 cells assessed as cell growth at 10 uM after 48 hrs by MTT assay; type: functional; settings: SNB-75, 48 h, read-out: Activity
RPMI-8226 [10] = assay: Cytotoxicity against human RPMI8226 cells assessed as cell growth at 10 uM after 48 hrs by MTT assay; type: functional; settings: RPMI-8226, 48 h, read-out: Activity
SF-539 = assay: Cytotoxicity against human SF539 cells assessed as cell growth at 10 uM after 48 hrs by MTT assay; type: functional; settings: SF-539, 48 h, read-out: Activity
MDA-MB-231 [11] = assay: Cytotoxicity against human MDA-MB-231 cells assessed as cell growth at 10 uM after 48 hrs by MTT assay; type: functional; settings: MDA-MB-231, 48 h, read-out: Activity
KM12 = assay: Cytotoxicity against human KM12 cells assessed as cell growth at 10 uM after 48 hrs by MTT assay; type: functional; settings: KM12, 48 h, read-out: Activity
NCI/ADR-RES = assay: Cytotoxicity against human NCI/ADR-RES cells assessed as cell growth at 10 uM after 48 hrs by MTT assay; type: functional; settings: read-out: Activity
K562 = assay: Cytotoxicity against human K562 cells assessed as cell growth at 100 uM after 1 to 11 days by MTT assay; type: functional; settings: read-out: Activity
RPMI-8226 [12] = assay: Cytotoxicity against human RPMI8226 cells assessed as cell growth at 100 uM after 1 to 11 days by MTT assay; type: functional; settings: read-out: Activity
HCT-116 = assay: Cytotoxicity against human HCT116 cells assessed as cell growth at 100 uM after 1 to 11 days by MTT assay; type: functional; settings: read-out: Activity
CCRF-CEM [13] = assay: Cytotoxicity against human CCRF-CEM cells assessed as cell growth at 1 uM after 1 to 11 days by MTT assay; type: functional; settings: read-out: Activity
LOX IMVI = assay: Cytotoxicity against human LOXIMVI cells assessed as cell growth at 0.1 uM after 1 to 11 days by MTT assay; type: functional; settings: read-out: Activity
BT-549 [14] = assay: Cytotoxicity against human BT549 cells after 1 to 11 days by MTT assay; type: functional
SK-MEL-5 [15] = assay: Cytotoxicity against human SK-MEL-5 cells assessed as cell growth at 0.1 uM after 1 to 11 days by MTT assay; type: functional; settings: read-out: Activity
HOP-62 = assay: Cytotoxicity against human HOP62 cells assessed as cell growth at 10 uM after 1 to 11 days by MTT assay; type: functional; settings: read-out: Activity
SR [16] = assay: Cytotoxicity against human SR cells after 1 to 11 days by MTT assay; type: functional
MDA-MB-231 [17] = assay: Cytotoxicity against human MDA-MB-231 cells assessed as cell growth at 1 mM after 1 to 11 days by MTT assay; type: functional; settings: read-out: Activity
[18] = read-out: LC50 (the source's name)

## CN1C(=O)/C(=C2/C(=O)N(C)c3ncccc32)c2cccnc21
[1]
  Activity: 109%
DU-145
  growth at 10 µM: 119%
SK-MEL-2
  growth at 10 µM: 83.5%
NCI-H322M
  growth at 10 µM: 96.5%
T47D
  growth at 10 µM: 109%
MCF7
  growth at 10 µM: 114%
786-0
  growth at 10 µM: 94.5%
OVCAR-4
  growth at 10 µM: 99.8%
[2]
  Activity: 94%
[3]
  Activity: 114%
EKVX
  growth at 10 µM: 98.4%
[4]
  Activity: 101%
CCRF-CEM [5]
  growth at 10 µM: 89.4%
SF-268
  growth at 10 µM: 103%
BT-549 [6]
  growth at 10 µM: 81.8%
PC-3
  growth at 10 µM: 100%
SW-620
  growth at 10 µM: 109%
[7]
  Activity: 84%
M14
  growth at 10 µM: 92.7%
SN12C
  growth at 10 µM: 105%
Malme-3M
  growth at 10 µM: 91.5%
CAKI-1
  growth at 10 µM: 95.5%
SK-MEL-5 [8]
  growth at 10 µM: 102%
SR [9]
  growth at 10 µM: 124%
SNB-75
  growth at 10 µM: 75.5%
RPMI-8226 [10]
  growth at 10 µM: 105%
SF-539
  growth at 10 µM: 117%
MDA-MB-231 [11]
  growth at 10 µM: 117%
KM12
  growth at 10 µM: 110%
NCI/ADR-RES
  growth at 10 µM: 85.5%

## O=C1Nc2ncccc2/C1=C1/Nc2ccccc2/C1=N\O
[1]
  Activity: 76%
DU-145
  growth at 10 µM: 82.2%
SK-MEL-2
  growth at 10 µM: 14.7%
NCI-H322M
  growth at 10 µM: 30.7%
T47D
  growth at 10 µM: 49.1%
MCF7
  growth at 10 µM: 87.8%
786-0
  growth at 10 µM: 43.4%
OVCAR-4
  growth at 10 µM: 86.7%
[2]
  Activity: 88%
[3]
  Activity: 100%
EKVX
  growth at 10 µM: 35.5%
[4]
  Activity: 65%
K562
  growth at 100 µM: 39%
RPMI-8226 [12]
  growth at 100 µM: 2%
HCT-116
  growth at 100 µM: 46%
CCRF-CEM [13]
  growth at 1 µM: 76%
CCRF-CEM [5]
  growth at 10 µM: 84.8%
SF-268
  growth at 10 µM: 86.2%
BT-549 [6]
  growth at 10 µM: 45.2%
PC-3
  growth at 10 µM: 67.7%
SW-620
  growth at 10 µM: 82.8%
[7]
  Activity: 19%
LOX IMVI
  growth at 0.1 µM: 98%
M14
  growth at 10 µM: 56.4%
SN12C
  growth at 10 µM: 72.8%
BT-549 [14]
  GI50: 5.41 µM
  TGI: > 100 µM
BT-549 [14]; [18]
  CC50: > 100 µM
Malme-3M
  growth at 10 µM: 91%
SK-MEL-5 [15]
  growth at 0.1 µM: 104%
CAKI-1
  growth at 10 µM: 12.4%
SK-MEL-5 [8]
  growth at 10 µM: 72.3%
SR [9]
  growth at 10 µM: 32.8%
SNB-75
  growth at 10 µM: 31.2%
RPMI-8226 [10]
  growth at 10 µM: 69.5%
SF-539
  growth at 10 µM: 50.3%
MDA-MB-231 [11]
  growth at 10 µM: 78.6%
KM12
  growth at 10 µM: 15%
HOP-62
  growth at 10 µM: 105%
NCI/ADR-RES
  growth at 10 µM: 71.8%
SR [16]
  GI50: 6.65 µM
  TGI: > 100 µM
SR [16]; [18]
  CC50: > 100 µM
MDA-MB-231 [17]
  growth at 1000 µM: 2%

## O=C1Nc2ncccc2/C1=C1/Nc2ccccc2C1=O
[1]
  Activity: 64%
DU-145
  growth at 10 µM: 81.2%
SK-MEL-2
  growth at 10 µM: 43.4%
NCI-H322M
  growth at 10 µM: 79.7%
T47D
  growth at 10 µM: 48.4%
MCF7
  growth at 10 µM: 41%
786-0
  growth at 10 µM: 84.1%
OVCAR-4
  growth at 10 µM: 80.4%
[2]
  Activity: 96%
[3]
  Activity: 99%
EKVX
  growth at 10 µM: 30.6%
[4]
  Activity: 82%
CCRF-CEM [5]
  growth at 10 µM: 88.4%
SF-268
  growth at 10 µM: 84.4%
BT-549 [6]
  growth at 10 µM: 70.6%
PC-3
  growth at 10 µM: 73%
SW-620
  growth at 10 µM: 102%
[7]
  Activity: 39%
M14
  growth at 10 µM: 93.8%
SN12C
  growth at 10 µM: 90.6%
Malme-3M
  growth at 10 µM: 139%
CAKI-1
  growth at 10 µM: 53.7%
SK-MEL-5 [8]
  growth at 10 µM: 75.4%
SR [9]
  growth at 10 µM: 82.5%
SNB-75
  growth at 10 µM: 68.1%
RPMI-8226 [10]
  growth at 10 µM: 75.4%
SF-539
  growth at 10 µM: 90.9%
MDA-MB-231 [11]
  growth at 10 µM: 78.3%
KM12
  growth at 10 µM: 89.5%
NCI/ADR-RES
  growth at 10 µM: 82.7%
